Data: PubChem BioAssay AID2060891 (Molecular Pharmacology Branch, DTP, NCI, 2025)

Test system: K98450-129-R-PDC complex spheroid growth, percent test/control
Assay: Anticancer human tumor K98450-129-R-PDC patient-derived colon adenocarcinoma cell line growth inhibition [RAS]
Details: for IC50: curve of first compound; for viability, T/C: stronger effect = lower value
Outline: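 Tumour cells grown as complex spheroids with HUVEC endothelial cells and mesenchymal stem cells, treated with RAS pathway inhibitor combinations. Each agent spans half-log steps from near clinical Cmax, or 10 microM where Cmax is unknown.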

[1] = second compound 0.00316 µM, first compound 0.00316 µM
[2] = second compound 0.00316 µM, first compound 0.01 µM
[3] = second compound 0.00316 µM, first compound 0.0316 µM
[4] = second compound 0.00316 µM, first compound 0.1 µM
[5] = second compound 0.00316 µM, first compound 0.316 µM
[6] = second compound 0.00316 µM, first compound 1 µM
[7] = second compound 0.01 µM, first compound 0.00316 µM
[8] = second compound 0.01 µM, first compound 0.01 µM
[9] = second compound 0.01 µM, first compound 0.0316 µM
[10] = second compound 0.01 µM, first compound 0.1 µM
[11] = second compound 0.01 µM, first compound 0.316 µM
[12] = second compound 0.01 µM, first compound 1 µM
[13] = second compound 0.0316 µM, first compound 0.00316 µM
[14] = second compound 0.0316 µM, first compound 0.01 µM
[15] = second compound 0.0316 µM, first compound 0.0316 µM
[16] = second compound 0.0316 µM, first compound 0.1 µM
[17] = second compound 0.0316 µM, first compound 0.316 µM
[18] = second compound 0.0316 µM, first compound 1 µM
[19] = second compound 0.1 µM, first compound 0.00316 µM
[20] = second compound 0.1 µM, first compound 0.01 µM
[21] = second compound 0.1 µM, first compound 0.0316 µM
[22] = second compound 0.1 µM, first compound 0.1 µM
[23] = second compound 0.1 µM, first compound 0.316 µM
[24] = second compound 0.1 µM, first compound 1 µM
[25] = second compound 0.316 µM, first compound 0.00316 µM
[26] = second compound 0.316 µM, first compound 0.01 µM
[27] = second compound 0.316 µM, first compound 0.0316 µM
[28] = second compound 0.316 µM, first compound 0.1 µM
[29] = second compound 0.316 µM, first compound 0.316 µM
[30] = second compound 0.316 µM, first compound 1 µM
[31] = second compound 1 µM, first compound 0.00316 µM
[32] = second compound 1 µM, first compound 0.01 µM
[33] = second compound 1 µM, first compound 0.0316 µM
[34] = second compound 1 µM, first compound 0.1 µM
[35] = second compound 1 µM, first compound 0.316 µM
[36] = second compound 1 µM, first compound 1 µM
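Note: spheroids exposed to agents for seven days before the viability readout.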
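Throughout, for viability, T/C: luminescence used as a proxy for viable cell amount.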

C=CC(=O)Nc1cc(Nc2nccc(-c3cn(C)c4ccccc34)n2)c(OC)cc1N(C)CCN(C)C + C=CC(=O)N1CCN(c2nc(OCC3CCCN3C)nc3c(F)c(-c4nc(N)cc(C)c4C(F)(F)F)c(Cl)cc23)C(C)C1
IC50 (second compound 0.00316 µM): 194 nM | IC50 (second compound 0.01 µM): 151 nM | IC50 (second compound 0.0316 µM): 54.3 nM | IC50 (second compound 0.1 µM): 10.5 nM | IC50 (second compound 0.316 µM): < 3.16 nM | IC50 (second compound 1 µM): < 3.16 nM | viability, T/C [1]: 93.5% | viability, T/C [2]: 85.9% | viability, T/C [3]: 91% | viability, T/C [4]: 83.5% | viability, T/C [5]: 25.5% | viability, T/C [6]: 9.6% | viability, T/C [7]: 94.4% | viability, T/C [8]: 78% | viability, T/C [9]: 85.2% | viability, T/C [10]: 71.3% | viability, T/C [11]: 11.4% | viability, T/C [12]: 8.81% | viability, T/C [13]: 70.3% | viability, T/C [14]: 70.4% | viability, T/C [15]: 63.6% | viability, T/C [16]: 34.3% | viability, T/C [17]: 9.39% | viability, T/C [18]: 8.93% | viability, T/C [19]: 56.3% | viability, T/C [20]: 47.9% | viability, T/C [21]: 38.7% | viability, T/C [22]: 17.6% | viability, T/C [23]: 8.42% | viability, T/C [24]: 8.07% | viability, T/C [25]: 39% | viability, T/C [26]: 34.4% | viability, T/C [27]: 29.3% | viability, T/C [28]: 13.7% | viability, T/C [29]: 10.3% | viability, T/C [30]: 9.33% | viability, T/C [31]: 30.4% | viability, T/C [32]: 27.1% | viability, T/C [33]: 22.6% | viability, T/C [34]: 13.8% | viability, T/C [35]: 10.9% | viability, T/C [36]: 9.84%

CC(Nc1ccc2c(c1)OCCn1cc(N3C(=O)OCC3C(F)F)nc1-2)C(N)=O (stereo unspecified) + C=CC(=O)N1CCN(c2nc(OCC3CCCN3C)nc3c(F)c(-c4nc(N)cc(C)c4C(F)(F)F)c(Cl)cc23)C(C)C1
IC50 (second compound 0.00316 µM): > 10000 nM | IC50 (second compound 0.01 µM): > 10000 nM | IC50 (second compound 0.0316 µM): 4560 nM | IC50 (second compound 0.1 µM): 73.8 nM | IC50 (second compound 0.316 µM): < 31.6 nM | IC50 (second compound 1 µM): < 31.6 nM | viability, T/C [3]: 92.5% | viability, T/C [4]: 90.4% | viability, T/C [5]: 81.7% | viability, T/C [6]: 83.1% | viability, T/C (second compound 0.00316 µM, first compound 3.16 µM): 70% | viability, T/C (second compound 0.00316 µM, first compound 10 µM): 64.3% | viability, T/C [9]: 85.4% | viability, T/C [10]: 81.2% | viability, T/C [11]: 78.5% | viability, T/C [12]: 65.1% | viability, T/C (second compound 0.01 µM, first compound 3.16 µM): 59.8% | viability, T/C (second compound 0.01 µM, first compound 10 µM): 53.8% | viability, T/C [15]: 69.5% | viability, T/C [16]: 70.3% | viability, T/C [17]: 62.7% | viability, T/C [18]: 51.4% | viability, T/C (second compound 0.0316 µM, first compound 3.16 µM): 53.7% | viability, T/C (second compound 0.0316 µM, first compound 10 µM): 46.9% | viability, T/C [21]: 53.9% | viability, T/C [22]: 47.4% | viability, T/C [23]: 45% | viability, T/C [24]: 39% | viability, T/C (second compound 0.1 µM, first compound 3.16 µM): 32.5% | viability, T/C (second compound 0.1 µM, first compound 10 µM): 28.8% | viability, T/C [27]: 35.4% | viability, T/C [28]: 32.5% | viability, T/C [29]: 31.6% | viability, T/C [30]: 22.4% | viability, T/C (second compound 0.316 µM, first compound 3.16 µM): 22.9% | viability, T/C (second compound 0.316 µM, first compound 10 µM): 16.6% | viability, T/C [33]: 28.4% | viability, T/C [34]: 28.2% | viability, T/C [35]: 23.5% | viability, T/C [36]: 18% | viability, T/C (second compound 1 µM, first compound 3.16 µM): 15.3% | viability, T/C (second compound 1 µM, first compound 10 µM): 14.5%

O=C(c1ccc(F)c(F)c1Nc1ccc(I)cc1F)N1CC(O)([C@@H]2CCCCN2)C1 + C=CC(=O)N1CCN(c2nc(OCC3CCCN3C)nc3c(F)c(-c4nc(N)cc(C)c4C(F)(F)F)c(Cl)cc23)C(C)C1
IC50 (second compound 0.00316 µM): 165 nM | IC50 (second compound 0.01 µM): 132 nM | IC50 (second compound 0.0316 µM): 106 nM | IC50 (second compound 0.1 µM): 8.9 nM | IC50 (second compound 0.316 µM): < 3.16 nM | IC50 (second compound 1 µM): < 3.16 nM | viability, T/C [1]: 91.1% | viability, T/C [2]: 96.7% | viability, T/C [3]: 87.9% | viability, T/C [4]: 78.3% | viability, T/C [5]: 13.7% | viability, T/C [6]: 2.87% | viability, T/C [7]: 86.3% | viability, T/C [8]: 77.6% | viability, T/C [9]: 81.8% | viability, T/C [10]: 63.1% | viability, T/C [11]: 9.42% | viability, T/C [12]: 3.09% | viability, T/C [13]: 72.8% | viability, T/C [14]: 64.5% | viability, T/C [15]: 63.2% | viability, T/C [16]: 52.5% | viability, T/C [17]: 7.27% | viability, T/C [18]: 2.63% | viability, T/C [19]: 55.2% | viability, T/C [20]: 47.6% | viability, T/C [21]: 39% | viability, T/C [22]: 22.6% | viability, T/C [23]: 5.51% | viability, T/C [24]: 2.39% | viability, T/C [25]: 34.2% | viability, T/C [26]: 34.2% | viability, T/C [27]: 21.5% | viability, T/C [28]: 10.9% | viability, T/C [29]: 4.66% | viability, T/C [30]: 2.41% | viability, T/C [31]: 27.9% | viability, T/C [32]: 24.1% | viability, T/C [33]: 16.3% | viability, T/C [34]: 9.12% | viability, T/C [35]: 5% | viability, T/C [36]: 2.46%
